Measured values taken from ChEMBL document CHEMBL1629559, “Real-time PCR detection of gyrA and parC mutations in Streptococcus pneumoniae” (2008).
Values after ≈ are worked out from the molar mass of the structure shown.

Tests used:
[1] = tested on: Streptococcus pneumoniae; experiment: Antibacterial activity against Streptococcus pneumoniae R6 Tr6 harboring gyrA Ser81Phe mutant gene by agar disk diffusion method; assay type: functional
[2] = tested on: Streptococcus pneumoniae; experiment: Antibacterial activity against Streptococcus pneumoniae U2A1413 harboring parC Ser79Tyr mutant gene by agar disk diffusion method; assay type: functional
[3] = tested on: Streptococcus pneumoniae; experiment: Antibacterial activity against Streptococcus pneumoniae R6 by agar disk diffusion method; assay type: functional
[4] = tested on: Streptococcus pneumoniae; experiment: Antibacterial activity against Streptococcus pneumoniae CP1000 by agar dilution method; assay type: functional
[5] = tested on: Streptococcus pneumoniae; experiment: Antibacterial activity against Streptococcus pneumoniae U2A1414 harboring gyrA Glu85Lys parC Ser79Phe mutant gene by agar dilution method; assay type: functional
[6] = tested on: Streptococcus pneumoniae; experiment: Antibacterial activity against Streptococcus pneumoniae U2A1266 harboring gyrA Ser81Cys mutant gene by agar dilution method; assay type: functional
[7] = tested on: Streptococcus pneumoniae; experiment: Antibacterial activity against Streptococcus pneumoniae U2A1051 harboring gyrA Ser81Tyr mutant gene by agar disk diffusion method; assay type: functional
[8] = tested on: Streptococcus pneumoniae; experiment: Antibacterial activity against Streptococcus pneumoniae U2A1051 harboring gyrA Ser81Tyr mutant gene by agar dilution method; assay type: functional
[9] = tested on: Streptococcus pneumoniae; experiment: Antibacterial activity against Streptococcus pneumoniae U2A1411 harboring parC Asp83Gly mutant gene by agar disk diffusion method; assay type: functional
[10] = tested on: Streptococcus pneumoniae; experiment: Antibacterial activity against Streptococcus pneumoniae U2A1050 harboring gyrA Ser81Phe mutant gene by agar disk diffusion method; assay type: functional
[11] = tested on: Streptococcus pneumoniae; experiment: Antibacterial activity against Streptococcus pneumoniae H548 clinical isolate harboring gyrA Ser81Phe mutant gene by agar disk diffusion method; assay type: functional
[12] = tested on: Streptococcus pneumoniae; experiment: Antibacterial activity against Streptococcus pneumoniae R6 Tr10 harboring gyrA Ser81Tyr parC Ser79Tyr mutant gene by agar disk diffusion method; assay type: functional
[13] = tested on: Streptococcus pneumoniae; experiment: Antibacterial activity against Streptococcus pneumoniae U2A1693 harboring parC Asp83Asn mutant gene by agar disk diffusion method; assay type: functional
[14] = tested on: Streptococcus pneumoniae; experiment: Antibacterial activity against Streptococcus pneumoniae CP1000 by agar disk diffusion method; assay type: functional
[15] = tested on: Streptococcus pneumoniae; experiment: Antibacterial activity against Streptococcus pneumoniae U2A1686 harboring gyrA Glu85Lys mutant gene by agar disk diffusion method; assay type: functional
[16] = tested on: Streptococcus pneumoniae; experiment: Antibacterial activity against Streptococcus pneumoniae R6 Tr10 harboring gyrA Ser81Tyr parC Ser79Tyr mutant gene by agar dilution method; assay type: functional
[17] = tested on: Streptococcus pneumoniae; experiment: Antibacterial activity against Streptococcus pneumoniae R6 by agar dilution method; assay type: functional
[18] = tested on: Streptococcus pneumoniae; experiment: Antibacterial activity against Streptococcus pneumoniae U2A1411 harboring parC Asp83Gly mutant gene by agar dilution method; assay type: functional
[19] = tested on: Streptococcus pneumoniae; experiment: Antibacterial activity against Streptococcus pneumoniae U2A1056 harboring gyrA Ser81Tyr parC Asp83His mutant gene by agar dilution method; assay type: functional
[20] = tested on: Streptococcus pneumoniae; experiment: Antibacterial activity against Streptococcus pneumoniae U2A1266 harboring gyrA Ser81Cys mutant gene by agar disk diffusion method; assay type: functional
[21] = tested on: Streptococcus pneumoniae; experiment: Antibacterial activity against Streptococcus pneumoniae R6 Tr1 harboring parC Ser79Tyr mutant gene by agar disk diffusion method; assay type: functional
[22] = tested on: Streptococcus pneumoniae; experiment: Antibacterial activity against Streptococcus pneumoniae U2A1693 harboring parC Asp83Asn mutant gene by agar dilution method; assay type: functional
[23] = tested on: Streptococcus pneumoniae; experiment: Antibacterial activity against Streptococcus pneumoniae H548 clinical isolate harboring gyrA Ser81Phe mutant gene by agar dilution method; assay type: functional
[24] = tested on: Streptococcus pneumoniae; experiment: Antibacterial activity against Streptococcus pneumoniae R6 Tr6 harboring gyrA Ser81Phe mutant gene by agar dilution method; assay type: functional
[25] = tested on: Streptococcus pneumoniae; experiment: Antibacterial activity against Streptococcus pneumoniae U2A1050 harboring gyrA Ser81Phe mutant gene by agar dilution method; assay type: functional
[26] = tested on: Streptococcus pneumoniae; experiment: Antibacterial activity against Streptococcus pneumoniae U2A1056 harboring gyrA Ser81Tyr parC Asp83His mutant gene by agar disk diffusion method; assay type: functional
[27] = tested on: Streptococcus pneumoniae; experiment: Antibacterial activity against Streptococcus pneumoniae U2A1681 harboring parC Ser79Tyr Asp83Ala mutant gene by agar dilution method; assay type: functional
[28] = tested on: Streptococcus pneumoniae; experiment: Antibacterial activity against Streptococcus pneumoniae CIP104485 by agar dilution method; assay type: functional; conditions: CIP1044
[29] = tested on: Streptococcus pneumoniae; experiment: Antibacterial activity against Streptococcus pneumoniae R6 Tr1 harboring parC Ser79Tyr mutant gene by agar dilution method; assay type: functional
[30] = tested on: Streptococcus pneumoniae; experiment: Antibacterial activity against Streptococcus pneumoniae U2A1686 harboring gyrA Glu85Lys mutant gene by agar dilution method; assay type: functional
[31] = tested on: Streptococcus pneumoniae; experiment: Antibacterial activity against Streptococcus pneumoniae U2A1413 harboring parC Ser79Tyr mutant gene by agar dilution method; assay type: functional
[32] = tested on: Streptococcus pneumoniae; experiment: Antibacterial activity against Streptococcus pneumoniae U2A1053 harboring parC Ser79Phe mutant gene by agar disk diffusion method; assay type: functional
[33] = tested on: Streptococcus pneumoniae; experiment: Antibacterial activity against Streptococcus pneumoniae U2A1414 harboring gyrA Glu85Lys parC Ser79Phe mutant gene by agar disk diffusion method; assay type: functional
[34] = tested on: Streptococcus pneumoniae; experiment: Antibacterial activity against Streptococcus pneumoniae U2A1060 harboring gyrA Ser81Phe parC Asp83His mutant gene by agar dilution method; assay type: functional
[35] = tested on: Streptococcus pneumoniae; experiment: Antibacterial activity against Streptococcus pneumoniae U2A1053 harboring parC Ser79Phe mutant gene by agar dilution method; assay type: functional
[36] = tested on: Streptococcus pneumoniae; experiment: Antibacterial activity against Streptococcus pneumoniae CIP104485 by agar disk diffusion method; assay type: functional, CIP1044
[37] = tested on: Streptococcus pneumoniae; experiment: Antibacterial activity against Streptococcus pneumoniae U2A1060 harboring gyrA Ser81Phe parC Asp83His mutant gene by agar disk diffusion method; assay type: functional
[38] = tested on: Streptococcus pneumoniae; experiment: Antibacterial activity against Streptococcus pneumoniae U2A1681 harboring parC Ser79Tyr Asp83Ala mutant gene by agar disk diffusion method; assay type: functional

Row | Compound | diameter of the inhibition zone (DIZ) [1] | diameter of the inhibition zone (DIZ) [2] | diameter of the inhibition zone (DIZ) [3] | MIC [4] | MIC [5] | MIC [6] | diameter of the inhibition zone (DIZ) [7] | MIC [8] | diameter of the inhibition zone (DIZ) [10] | diameter of the inhibition zone (DIZ) [14] | diameter of the inhibition zone (DIZ) [15] | MIC [16] | MIC [17] | MIC [18] | MIC [19] | diameter of the inhibition zone (DIZ) [20] | MIC [22] | MIC [24] | MIC [25] | MIC [27] | other results
1 | CCn1cc(C(=O)O)c(=O)c2cc(F)c(N3CCNCC3)cc21 [NORFLOXACIN] | 18 mm | 6 mm | 19 mm | 4 µg/mL (≈ 12.5 µM) | 256 µg/mL (≈ 802 µM) | 8 µg/mL (≈ 25.1 µM) | 18 mm | 8 µg/mL (≈ 25.1 µM) | 16 mm | 21 mm | 22 mm | 128 µg/mL (≈ 401 µM) | 4 µg/mL (≈ 12.5 µM) | 256 µg/mL (≈ 802 µM) | 128 µg/mL (≈ 401 µM) | 13 mm | 64 µg/mL (≈ 200 µM) | 4 µg/mL (≈ 12.5 µM) | 8 µg/mL (≈ 25.1 µM) | 256 µg/mL (≈ 802 µM) | diameter of the inhibition zone (DIZ) [9]: 6 mm; diameter of the inhibition zone (DIZ) [11]: 6 mm; diameter of the inhibition zone (DIZ) [12]: 6 mm; diameter of the inhibition zone (DIZ) [13]: 6 mm; diameter of the inhibition zone (DIZ) [21]: 6 mm; MIC [23]: 32 µg/mL (≈ 100 µM); diameter of the inhibition zone (DIZ) [26]: 6 mm; MIC [28]: 4 µg/mL (≈ 12.5 µM); MIC [29]: 64 µg/mL (≈ 200 µM); MIC [30]: 4 µg/mL (≈ 12.5 µM); MIC [31]: 32 µg/mL (≈ 100 µM); diameter of the inhibition zone (DIZ) [32]: 6 mm; diameter of the inhibition zone (DIZ) [33]: 6 mm; MIC [34]: 256 µg/mL (≈ 802 µM); MIC [35]: 64 µg/mL (≈ 200 µM); diameter of the inhibition zone (DIZ) [36]: 19 mm; diameter of the inhibition zone (DIZ) [37]: 6 mm; diameter of the inhibition zone (DIZ) [38]: 6 mm
2 | CCn1cc(C(=O)O)c(=O)c2cc(F)c(N3CCN(C)CC3)cc21 [PEFLOXACIN] | 19 mm | 13 mm | 17 mm | 4 µg/mL (≈ 12 µM) | > 128 µg/mL | 16 µg/mL (≈ 48 µM) | 20 mm | 16 µg/mL (≈ 48 µM) | 18 mm | 21 mm | 23 mm | > 128 µg/mL | 8 µg/mL (≈ 24 µM) | 64 µg/mL (≈ 192 µM) | 64 µg/mL (≈ 192 µM) | 17 mm | 64 µg/mL (≈ 192 µM) | 8 µg/mL (≈ 24 µM) | 16 µg/mL (≈ 48 µM) | > 128 µg/mL | MIC [28]: 8 µg/mL (≈ 24 µM); MIC [29]: 64 µg/mL (≈ 192 µM); MIC [30]: 8 µg/mL (≈ 24 µM); MIC [31]: 32 µg/mL (≈ 96 µM); diameter of the inhibition zone (DIZ) [32]: 13 mm; MIC [34]: 128 µg/mL (≈ 384 µM); MIC [35]: 128 µg/mL (≈ 384 µM); diameter of the inhibition zone (DIZ) [36]: 18 mm
